Experimental data from US20230364271A1, “METHODS AND COMPOSITIONS FOR INCREASING UPTAKE, INTERNALIZATION, AND/OR RETENTION OF SMALL MOLECULE LIGANDS” (CORNELL UNIVERSITY, priority 2020, published 2023).

Tests used:
[1] = test system: LNCaP cells; test: Retention of internalized Lu^177-labelled agent in LNCaP cells (Example 1); format: cell-based, human; settings: for efflux out of the cells after internalization: 2 human prostate cancer cell lines (LNCaP and CWR22Rv1); for cell-associated counts retained: LNCaP
Experimental: (§1) LNCaP or CWR22Rv1 cells were plated into 12-well plates overnight. Lu^177-J591 (0.5 μci/ml/well) or Lu^177-PSMA-617 (0.5 μci/ml/well) was then added, and the cells were incubated for 6 hours at 37° C. to allow internalization. Duplicate wells were used for each time point. After 6 hours of incubation, the cells were washed once with RPMI-10% FBS. 0.6 ml of 1% TritonX-100 was added per well for 2 wells as 0 time point, and 1.5 ml of RPMI-10% FBS was added to the remaining wells. The cells were incubated at 37° C. for 1 to 6 days. On day 1, 2, 3, 5, and 6, the medium was removed and 0.6 ml of 1% TritonX-100 was added to each well. The lysate was collected from each well and all samples were counted at day 6. Results are shown in Table 1 below (in % of time 0 counts) and FIGS. 1A-1B.

[2] = test system: CWR22rv1 tumors; test: Tumor uptake of PSMA-617-Lu^177 in CWR22rv1 xenografts with cold antibody (Example 4); format: in vivo, BALB/c nude mice; settings: PSMA-617-Lu^177 300 μci IV with PBS, day 3 post-injection, average
Experimental: CWR22rv1 cells (5×10^6 cells/200 μl matrigel/mouse) were injected into 40 BALB/c nude mice. After tumors were established and growing, all mice were injected intravenously (IV) via tail vein with PSMA-617-Lu^177 (300 μci/per mouse) on day 0. The treatment groups were as follows.
All mice were euthanized 3 days after injection of PSMA-617-Lu^177. All tumors were harvested, weighed individually, and radioactivity counted.

[3] = test system: CWR22Rv1 cells; test: Retention of internalized Lu^177-labelled agent in CWR22Rv1 cells (Example 1); format: cell-based, human
Experimental: as §1

O=C([O-])CN1CCN(CC(=O)[O-])CCN(CC(=O)NCC2CCC(C(=O)N[C@@H](Cc3ccc4ccccc4c3)C(=O)NCCCC[C@H](NC(=O)N[C@@H](CCC(=O)O)C(=O)O)C(=O)O)CC2)CCN(CC(=O)[O-])CC1.[177Lu+3] (stereo partly drawn) [Lu^177-PSMA-617]
efflux out of the cells after internalization ([1]; listed as PSMA 617-Lu^177): rapidly effluxed back out of the cell soon after internalization
efflux out of the cells after internalization ([1]; listed as small molecule ligand): rapidly effluxed out of the cells
cell-associated counts retained ([1]; 0 time (after 6 h incubation)): 100.00 % of time 0 counts
cell-associated counts retained ([1]; Day 1): 52.21 % of time 0 counts
cell-associated counts retained ([1]; Day 2): 56.06 % of time 0 counts
cell-associated counts retained ([1]; Day 3): 42.80 % of time 0 counts
cell-associated counts retained ([1]; Day 5): 39.12 % of time 0 counts
cell-associated counts retained ([1]; Day 6): 35.82 % of time 0 counts
tumor radioactivity [2]: 150 cpm/mg of tumor
cell-associated counts retained ([3]; CWR22Rv1, 0 time (after 6 h incubation)): 100.00 % of time 0 counts
cell-associated counts retained ([3]; CWR22Rv1, Day 1): 24.37 % of time 0 counts
cell-associated counts retained ([3]; CWR22Rv1, Day 2): 23.99 % of time 0 counts
cell-associated counts retained ([3]; CWR22Rv1, Day 3): 10.28 % of time 0 counts
cell-associated counts retained ([3]; CWR22Rv1, Day 5): 9.39 % of time 0 counts
cell-associated counts retained ([3]; CWR22Rv1, Day 6): 7.64 % of time 0 counts
